Numbered stars: 1 amine (or outer) side, 2 acyl side, 3 side chain; on linkers, the order of the positions; unused ones are H or OH. Bridge positions count the residues as written; N and C are the ends. Square brackets hold non-standard residues; d marks the D form. Peptide text beside a SMILES is read from it. * marks the point of attachment. hPhe(3,5-F2-4-CF3) = N[C@@H](CCc1cc(F)c(C(F)(F)F)c(F)c1)C(=O)O; hPhe(3-Cl-4-CF3) = N[C@@H](CCc1ccc(C(F)(F)F)c(Cl)c1)C(=O)O; hPhe(3-F,4-CF3) = N[C@@H](CCc1ccc(C(F)(F)F)c(F)c1)C(=O)O; NEtPhe(4-CF3) = CCN[C@@H](Cc1ccc(C(F)(F)F)cc1)C(=O)O; NMePhe(4-CF3) = CN[C@@H](Cc1ccc(C(F)(F)F)cc1)C(=O)O; X98 = O=C([C@H](CCOc1ccc(Cl)c(Cl)c1)N[*:1])[*:2]; 3Oxa8azabicyclo(3.2.1)octane = C1CC2COCC1N2*; NMePhe(4-Cl) = CN[C@@H](Cc1ccc(Cl)cc1)C(=O)O; NMePhe(4-Me) = CN[C@@H](Cc1ccc(C)cc1)C(=O)O; NMedβ3hAla = C[C@H](CC(=O)[*:2])N(C)[*:1]; X77 = O=C(CN(CCN1CCC(F)(F)CC1)[*:1])[*:2]; NMeGly(cPent) = CN[C@H](C(=O)O)C1CCCC1; Phe(3-I) = N[C@@H](Cc1cccc(I)c1)C(=O)O; NMe4Pal = CN[C@@H](Cc1ccncc1)C(=O)O; NMeCha = CN[C@@H](CC1CCCCC1)C(=O)O; NMehLeu = CN[C@@H](CCC(C)C)C(=O)O; Hyp = O=C(O)[C@@H]1C[C@@H](O)CN1; NMeChg = CN[C@H](C(=O)O)C1CCCCC1; NMeF = CN[C@@H](Cc1ccccc1)C(=O)O; NMeI = CC[C@H](C)[C@H](NC)C(=O)O; NMeD = CN[C@@H](CC(=O)O)C(=O)O; NMeL = CN[C@@H](CC(C)C)C(=O)O; d(β3hA) = C[C@@H](N)CC(=O)O; NMeS = CN[C@@H](CO)C(=O)O; NMeA = CN[C@@H](C)C(=O)O; Piperidide = C1CCN(*)CC1; Pyrrolidide = C1CCN(*)C1; dNMeA = CN[C@H](C)C(=O)O; Ac5c = NC1(C(=O)O)CCCC1; Aze = O=C(O)[C@@H]1CCN1; Sar = CNCC(=O)O; Propyl = CCC*

The target in the experiment is protein-protein interaction between Kras and SOS1 (biotin-tagged human Kras loaded with GDP, His-tagged human SOS1) (Homo sapiens (Human), UniProt P01116, G12D). Put plainly: Protein-protein interaction inhibition between Kras and SOS1 (KrasG12D-SOS PPI) using AlphaScreen.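 Also: kras produced in E. coli, Ni-coupled donor beads and streptavidin acceptor beads, excitation 680 nm with emission detected at 520–620 nm via singlet oxygen transfer.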 In kind it is biochemical. To be noted: AlphaScreen; biotin-tagged human Kras loaded with GDP, His-tagged human SOS1; read-out: KRAS G12D-SOS PPI IC50.
As for `CC[C@H](C)[C@@H]1NC(=O)[C@H](C)N(C)C(=O)C[C@@H](C(=O)N2CCCCC2)N(C)C(=O)[C@H](C2CCCCC2)N(C)C(=O)C2(CCCC2)NC(=O)[C@@H]2CCCN2C(=O)[C@H](CCOc2ccc(Cl)c(Cl)c2)NC(=O)CN(C)C(=O)[C@H](CC2CCCCC2)N(C)C(=O)CN(C)C(=O)CN(C)C1=O` [Compound 2039, (3S,9S,18S,21S,25S,28S,34S)-28-cyclohexyl-9-(cyclohexylmethyl)-3-[2-(3,4-dichlorophenoxy)ethyl]-7,10,13,16,21,22,26,29-octamethyl-18-[(1S)-1-methylpropyl]-25-(piperidine-1-carbonyl)spiro[1,4,7,10,13,16,19,22,26,29,32-undecazabicyclo[32.3.0]heptatriacontane-31,1′-cyclopentane]-2,5,8,11,14,17,20,23,27,30,33-undecone] ([NMeA]I[Sar][Sar][NMeCha][Sar][X98]P[Ac5c][NMeChg][NMeD]-Piperidide; lactam N-11), the IC50 (in general, the concentration at which inhibition is half-maximal) was 18 nM.

As to `CCO[C@@H]1C[C@H]2C(=O)NC3(CCCC3)C(=O)N(C)[C@@H](C3CCCC3)C(=O)N(C)[C@H](C)CC(=O)N(C)[C@@H](CC(C)C)C(=O)N[C@@H]([C@@H](C)CC)C(=O)N[C@@H](C)C(=O)N3CC[C@H]3C(=O)N(CC)[C@@H](Cc3ccc(C(F)(F)F)cc3)C(=O)N(C)CC(=O)N[C@@H](CCc3cc(F)c(C(F)(F)F)c(F)c3)C(=O)N2C1` [Compound 785] (cyclo(A[Aze][NEtPhe(4-CF3)][Sar][hPhe(3,5-F2-4-CF3)][Hyp](Et)[Ac5c][NMeGly(cPent)][NMedβ3hAla][NMeL]I)), the half-inhibitory concentration (IC50) amounted to 3.5 nM.

For the compound `CC[C@H](C)[C@@H]1NC(=O)[C@H](CC(C)C)N(C)C(=O)C[C@@H](C)NC(=O)[C@H](C2CCCC2)N(C)C(=O)C2(CCCC2)NC(=O)[C@@H]2CCCN2C(=O)[C@H](CCc2ccc(C(F)(F)F)c(Cl)c2)NC(=O)[C@@H](C)N(C)C(=O)[C@H](Cc2ccc(C(F)(F)F)cc2)N(C)C(=O)[C@@H]2CCN2C(=O)[C@H](C)N(C)C1=O` [Compound 1482] (cyclo([Ac5c][NMeGly(cPent)][d(β3hA)][NMeL]I[NMeA][Aze][NMePhe(4-CF3)][dNMeA][hPhe(3-Cl-4-CF3)]P)), the half-inhibitory concentration (IC50) worked out at 88 nM.

For the compound `CC[C@H](C)[C@@H]1NC(=O)[C@H](CC(C)C)N(C)C(=O)C[C@@H](C(=O)N2CCCCC2)N(C)C(=O)[C@H](C2CCCCC2)N(C)C(=O)C2(CCCC2)NC(=O)CN(CCN2CCC(F)(F)CC2)C(=O)[C@H](CCc2ccc(C(F)(F)F)c(Cl)c2)NC(=O)CN(C)C(=O)[C@H](CC2CCCCC2)N(C)C(=O)CN(C)C(=O)CN(C)C1=O` [Compound 2022] ([NMeL]I[Sar][Sar][NMeCha][Sar][hPhe(3-Cl-4-CF3)][X77][Ac5c][NMeChg][NMeD]-Piperidide; lactam N-11), the IC50 came to 3.8 nM.

On to `CC[C@H](C)[C@@H]1NC(=O)[C@H](C)N(C)C(=O)C[C@@H](C)NC(=O)[C@H](CC(C)C)N(C)C(=O)[C@H](Cc2ccccc2)N(C)C(=O)[C@H](CC(C)C)NC(=O)[C@H](Cc2cccc(I)c2)NC(=O)CN(C)C(=O)[C@H](Cc2ccc(Cl)cc2)N(C)C(=O)CN(C)C(=O)CN(C)C1=O` [Compound 65] (cyclo(I[Sar][Sar][NMePhe(4-Cl)][Sar][Phe(3-I)]L[NMeF][NMeL][d(β3hA)][NMeA])), for which the IC50 turned out to be 240 nM.

`CC[C@H](C)[C@@H]1NC(=O)[C@H](CC(C)C)N(C)C(=O)C[C@@H](C(=O)N2CCCCC2)N(C)C(=O)[C@H](C2CCCCC2)N(C)C(=O)C2(CCCC2)NC(=O)[C@H](Cc2ccncc2)N(C)C(=O)[C@H](CCc2ccc(C(F)(F)F)c(Cl)c2)NC(=O)CN(C)C(=O)[C@H](CC2CCCCC2)N(C)C(=O)CN(C)C(=O)CN(C)C1=O` [Compound 36] ([NMeL]I[Sar][Sar][NMeCha][Sar][hPhe(3-Cl-4-CF3)][NMe4Pal][Ac5c][NMeChg][NMeD]-Piperidide; lactam N-11): the IC50 came out at 4.7 nM.

Regarding `CCCOC[C@H]1C(=O)N(C)CC(=O)N[C@@H](CCc2ccc(C(F)(F)F)c(Cl)c2)C(=O)N2CCC[C@H]2C(=O)NC2(CCCC2)C(=O)N(C)[C@@H](C2CCCC2)C(=O)N(C)[C@H](C(=O)N2C3CCC2COC3)CC(=O)N(C)[C@@H](CCC(C)C)C(=O)N[C@@H]([C@@H](C)CC)C(=O)N[C@@H](C)C(=O)N2CC[C@H]2C(=O)N1C` [Compound 1326] ([NMehLeu]IA[Aze][NMeS](Propyl)[Sar][hPhe(3-Cl-4-CF3)]P[Ac5c][NMeGly(cPent)][NMeD]-{3Oxa8azabicyclo(3.2.1)octane}; lactam N-11), the IC50 amounted to 5.1 nM.

`CC[C@H](C)[C@@H]1NC(=O)[C@H](CC(C)C)N(C)C(=O)C[C@@H](C(=O)N2CCCC2)N(C)C(=O)[C@H]([C@@H](C)CC)N(C)C(=O)C2(CCCC2)NC(=O)[C@@H]2CCCN2C(=O)[C@H](CCc2ccc(C(F)(F)F)c(F)c2)NC(=O)CN(C)C(=O)[C@H](Cc2ccc(C)cc2)N(C)C(=O)[C@@H]2CCN2C(=O)[C@H](C)N(C)C1=O` [Compound 44] ([NMeL]I[NMeA][Aze][NMePhe(4-Me)][Sar][hPhe(3-F,4-CF3)]P[Ac5c][NMeI][NMeD]-Pyrrolidide; lactam N-11): the IC50 came out at 1.1 nM.

These data come from patent US20240148821A1, “PHARMACEUTICAL USE OF CYCLIC PEPTIDE COMPOUND” (CHUGAI SEIYAKU KABUSHIKI KAISHA, priority 2021, published 2024).
